Test results published in article PMC2614900 (Journal of the American Chemical Society, 2008).

Key:
[1] = test system: MT-2 lymphocytes
[2] = test system: IL-10; details: at 10 μg mL^-1; cited from earlier work
[3] = test system: tumor necrosis factor-α (TNFα); details: at 10 μg mL^-1; cited from earlier work
[4] = test system: IL-12; details: at 10 μg mL^-1; cited from earlier work
[5] = test system: HIV; details: cited from earlier work
[6] = test system: HIV-1; assay: Inhibition of HIV-1 replication in MT-2 lymphocytes; details: for TI, therapeutic index (CC50/IC50): MT-2 CC50 / HIV-1 IC50
[7] = Cytotoxicity against non-infected MT-2 lymphocytes; details: human
[8] = test system: noninfected H9 lymphocytes; details: cited from earlier work

4-epi-hyperolactone C [compound 16]
CC50 [1]: 462 µM

24-epi-biyouyanagin A [2a]
CC50 [1]: 285 µM

C=C[C@@]1(C)COC(=O)[C@]12O[C@]1(c3ccccc3)[C@H](C2=O)[C@H]2[C@H]([C@H](C)CCC=C(C)C)CC=C(C)[C@H]21 [2b, biyouyanagin A]
LPS-induced cytokine production, IL-10 [2]: 0.03
LPS-induced cytokine production, TNFα [3]: 0.48
LPS-induced cytokine production, IL-12 [4]: 0.02
EC50, inhibition of HIV replication in H9 lymphocytes [5]: 0.798 µg/mL
IC50 ([6]; Human immunodeficiency virus 1, Lymphocyte, read-out: HIV-1 IC50): 26 µM
TI, therapeutic index (CC50/IC50) [6]: 7.5
CC50 [7]: 198 µM
EC50, noninfected H9 lymphocytes [8]: > 25 µg/mL

Cc1cn([C@H]2C[C@H](N=[N+]=[N-])[C@@H](CO)O2)c(=O)[nH]c1=O [AZT, reference compound]
TI, therapeutic index (CC50/IC50) [6]: >641
CC50 [1]: > 50 µM

C=C[C@@]1(C)COC(=O)[C@]12OC(c1ccccc1)=CC2=O [compound 18, hyperolactone C]
TI, therapeutic index (CC50/IC50) [6]: 32.0
CC50 [1]: 925 µM
